Series [1] is described as follows: Tmax in Sprague-Dawley rat at 5 mg/kg, po measured after 24 hrs by LC-MS/MS analysis. Format: ADME, organism-based. The conditions noted are these: in vivo.
Series [2] deals with Influenza A virus. Kind of series: Antiviral activity against Influenza A virus (A/Fort Monmouth/1/1947(H1N1)) infected in dog MDCK cells assessed as inhibition of M2 RNA level at 3 nM measured after 2 hrs by qRT-PCR relative to control. Format: functional. In general terms: In qPCR the cycle at which signal appears reflects the starting amount.
A short description of series [3]: Selectivity index, ratio of TC50 for MDCK cells to IC50 for antiviral activity against Influenza A virus (A/WUHAN/359/1995(H3N2)) infected in MDCK cells. Format: toxicity, cell-based. The conditions noted are these: dog, read-out: Selectivity Index.
Series [4] deals with HEK293T. Description: Inhibition of Influenza A virus RdRP transfected in HEK293T cells co-transfected with NP/PA/PB1/PB2/pRL-SV40 at 1 nM incubated for 24 hrs by minireplicon based dual luciferase assay relative to control. Format: cell-based. (Replicon systems follow genome replication, usually without infectious particles.)
A short description of series [5]: Clearance in human liver microsomes in presence of NADPH generating system by LC-MS/MS analysis. Format: ADME, Microsome.
In another series the test system is MDCK. Description: Cytotoxicity against MDCK cells assessed as reduction in cell viability at 20 uM measured after 48 hrs by CCK8 assay. Format: cell-based, Canis lupus familiaris. The note with it: dog.
Series [6] concerns Influenza A virus. Description: Antiviral activity against Influenza A virus (A/Fort Monmouth/1/1947(H1N1)) infected in dog MDCK cells assessed as downregulation of M2 mRNA level measured after 2 hrs by qRT-PCR. Format: functional, organism-based.
Series [7] in a line: AUC (0 to t) in Sprague-Dawley rat at 5 mg/kg, po measured after 24 hrs by LC-MS/MS analysis. Format: ADME, organism-based. The note with it: in vivo. More on the design: time 24 hrs, dose 5 mg/kg, route po.
Series [8] is described as follows: Half life in mouse liver microsomes in presence of NADPH generating system by LC-MS/MS analysis. Format: ADME, Microsome.
Series [9] is described as follows: AUC (0 to infinity) in Sprague-Dawley rat at 5 mg/kg, po measured after 24 hrs by LC-MS/MS analysis. Format: ADME, organism-based. Further details: time 24 hrs, dose 5 mg/kg, route po. The conditions noted are these: in vivo.
The nature of series [10]: Clearance in mouse liver microsomes in presence of NADPH generating system by LC-MS/MS analysis. Format: ADME, Microsome. (Microsomes from liver hold many membrane-bound enzymes, among them those of drug oxidation.)
In series [11] the test system is Influenza A virus. Kind of series: Antiviral activity against Influenza A virus (A/Fort Monmouth/1/1947(H1N1)) infected in dog MDCK cells assessed as inhibition of M2 protein measured after 18 hrs by immunofluorescence microscopic analysis. Format: functional, organism-based.
The subject of series [12] is HEK293T. Kind of series: Inhibition of Influenza A virus RdRP transfected in HEK293T cells co-transfected with NP/PA/PB1/PB2/pRL-SV40 incubated for 24 hrs by DualGlo-luciferase assay. Format: cell-based.
A short description of series [13]: Selectivity index, ratio of TC50 for MDCK cells to IC50 for antiviral activity against Influenza A virus (A/Fort Monmouth/1/1947(H1N1)) infected in MDCK cells. Format: toxicity, cell-based. The note with it: dog, read-out: Selectivity Index.
The nature of series [14]: Half life in human liver microsomes in presence of NADPH generating system by LC-MS/MS analysis. Format: ADME, Microsome.
Series [15] can be described thus: Half life in rat liver microsomes in presence of NADPH generating system by LC-MS/MS analysis. Format: ADME, Microsome.
Series [16] is described as follows: Clearance in rat liver microsomes in presence of NADPH generating system by LC-MS/MS analysis. Format: ADME, Microsome.
Series [17] in a line: Half life in Sprague-Dawley rat at 5 mg/kg, po measured after 24 hrs by LC-MS/MS analysis. The conditions noted are these: in vivo. Format: ADME, organism-based.
The subject of series [18] is Influenza A virus. Description: Antiviral activity against Influenza A virus (A/Fort Monmouth/1/1947(H1N1)) infected in dog MDCK cells assessed as inhibition of virus-induced cytopathogenicity incubated for 48 hrs. Format: functional, organism-based.
Series [19] is described as follows: Oral bioavailability Sprague-Dawley rat at 5 mg/kg measured after 24 hrs by LC-MS/MS analysis. Format: ADME, organism-based. The note with it: in vivo.
Series [20] can be described thus: Antiviral activity against Influenza A virus (A/WUHAN/359/1995(H3N2)) infected in dog MDCK cells assessed as inhibition of virus-induced cytopathogenicity incubated for 48 hrs. Format: functional, cell-based.
A short description of series [21]: Cmax in Sprague-Dawley rat at 5 mg/kg, po measured after 24 hrs by LC-MS/MS analysis. Format: ADME, organism-based. More on the design: dose 5 mg/kg, time 24 hrs, route po. The conditions noted are these: in vivo.
Series [22] in a line: Cytotoxicity against MDCK cells assessed as reduction in cell viability measured after 48 hrs by CCK8 assay. Format: cell-based, Canis lupus familiaris. The conditions noted are these: dog, read-out: TC50.

In the case of `O=C1c2c(O)c(=O)ccn2N(C2c3ccccc3C=Cc3ccccc32)[C@@H]2COCCN12`, the Tmax (in general, the time at which the peak concentration occurs) in series [1] is 0.83 h. In the series with Influenza A virus [2], the inhibition (commonly the share of the control response that was lost under treatment) at 0.003 µM was 88.5%. The selectivity ratio came out at 497000 in series [3] and 450000 in series [13]. Moreover, the inhibition was 50% in the series with HEK293T [4] and “Dose-dependent effect” in the series on HEK293T [12]. For the same compound, the CLH in series [5] is 79.04 µmol/min/g; in series [10], 73.9 microL/ml/min; in [16], 14.49 microL/ml/min. In addition, the Activity result was “Non-Toxic” with MDCK, “Dose-dependent effect” with Influenza A virus [6] and “Dose-dependent effect” in the series on Influenza A virus [11]. The AUC(0-t) (in general, exposure summed from dosing to a finite time, without extrapolation to infinity) at 24 h in series [7] came out at 0.295 µg·h/mL. Also, the half-life (as a rule, the time needed for the level to fall by half in the phase considered) in [8] was 31.4 h; in series [14] it was 221 h; in [15] it was 73.8 h; in series [17], 1.7 h. The AUC(0-inf) (as a rule, the area under the concentration-time curve extrapolated to infinity) in series [9] is 0.311 µg·h/mL. In addition, the IC50 – broadly, the concentration that inhibits the measured activity by half – with Influenza A virus [18] worked out at 0.00042 µM; in [20], 0.00038 µM. Further, the bioavailability – broadly, the share of a dose that reaches the circulation, judged against a reference dose that is usually intravenous – in series [19] was found to be 22.9%. In addition, the Cmax (as a rule, the peak of the concentration-time curve) in series [21] is 0.0881 µg/mL. Besides, in series [22], the CC50 at 48 h stood at 189 µM.
In the case of `O=C1c2c(O)c(=O)ccn2N(C2c3ccccc3C=Cc3ccc(Br)cc32)[C@@H]2COCCN12` (mixture of isomers), the results for the selectivity ratio in series [3] and in [13] were more than 7490 and more than 10300, respectively. The Activity entry with MDCK is “Non-Toxic”. Besides, the IC50 in the series on Influenza A virus [18] worked out at 0.0194 µM; in series [20] it was 0.0267 µM. Also, the CC50 at 48 h in [22] was more than 200 µM.
`O=C1c2c(O)c(=O)ccn2N(C2c3ccccc3C=Cc3ccc(Cl)cc32)[C@@H]2COCCN12` (mixture of isomers): the selectivity ratio in [3] amounted to 1330; in [13] it was 1440. The IC50 turned out to be 0.0143 µM in the series on Influenza A virus [18] and 0.0152 µM in [20]. Besides, in series [22], the CC50 at 48 h is 20.1 µM.
`Cc1ccc2c(c1)C(N1[C@@H]3COCCN3C(=O)c3c(O)c(=O)ccn31)c1ccccc1C=C2` (mixture of isomers): the selectivity ratio in [3] came to 472; in [13], 1330. Moreover, in the series with MDCK, the Activity result is on record as “Non-Toxic”. The IC50 in the series with Influenza A virus [18] worked out at 0.0393 µM; in [20] it was 0.111 µM. Moreover, the CC50 at 48 h in series [22] was 52.4 µM.
As for `O=C1c2c(O)c(=O)ccn2N(C2c3ccccc3C=Cc3c(Cl)cccc32)[C@@H]2COCCN12` (mixture of isomers), the inhibition at 0.003 µM with Influenza A virus [2] was determined as 76.3%. The values for the selectivity ratio in [3] and in series [13] were 16100 and 14500, respectively. Also, the inhibition in the series on HEK293T [4] is 53.5%; in the series with HEK293T [12], “Dose-dependent effect”. The Activity entry in the series with Influenza A virus [6] and in the series with Influenza A virus [11] was “Dose-dependent effect” throughout. For the same compound, the IC50 with Influenza A virus [18] is 0.00059 µM; in series [20] it was 0.00053 µM. Besides, the CC50 at 48 h in series [22] was 8.53 µM.
In the case of `O=C1c2c(O)c(=O)ccn2N(C2c3ccccc3C=Cc3cc(Br)ccc32)[C@@H]2COCCN12` (mixture of isomers), the selectivity ratio is 1440 in series [3] and 2050 in series [13]. Moreover, the results for the IC50 (in the series with Influenza A virus [18]; in series [20]) were 0.0106 µM and 0.0151 µM, respectively. The CC50 at 48 h in series [22] was 21.7 µM.
Turning to `O=C1c2c(O)c(=O)ccn2N(C2c3ccccc3C=Cc3c(F)cccc32)[C@@H]2COCCN12` (mixture of isomers), the inhibition at 0.003 µM with Influenza A virus [2] is 86%. The selectivity ratio amounted to 34000 in [3] and 49600 in series [13]. Besides, the inhibition is 48.5% in the series with HEK293T [4] and “Dose-dependent effect” in the series with HEK293T [12]. In addition, the Activity result in the series on Influenza A virus [6] and in the series with Influenza A virus [11] was “Dose-dependent effect” throughout. The IC50 in the series with Influenza A virus [18] turned out to be 0.00039 µM; in series [20], 0.00057 µM. In series [22], the CC50 at 48 h came to 19.4 µM.
As for `O=C1c2c(O)c(=O)ccn2N(C2c3ccccc3C=Cc3cc(F)ccc32)[C@@H]2COCCN12` (mixture of isomers), the results for the selectivity ratio in series [3] and in [13] were 72600 and 117000, respectively. Besides, the Activity result in the series on MDCK was “Non-Toxic”; in the series with Influenza A virus [6], “Dose-dependent effect”. The results for the IC50 (in the series with Influenza A virus [18]; in series [20]) were 0.00051 µM and 0.00082 µM, respectively. In [22], the CC50 at 48 h turned out to be 59.5 µM.
Take `O=C1c2c(O)c(=O)ccn2N(C2c3ccccc3C=Cc3ccc(F)cc32)[C@@H]2COCCN12` (mixture of isomers): the values for the selectivity ratio in [3] and in series [13] were more than 113000 and more than 68700, respectively. The figures for the Activity entry in the series with MDCK and in the series on Influenza A virus [6] were “Non-Toxic” and “Dose-dependent effect”, respectively. In addition, the IC50 came out at 0.00291 µM in the series with Influenza A virus [18] and 0.00177 µM in series [20]. Moreover, the CC50 at 48 h in series [22] is more than 200 µM.
For the compound `COc1ccc2c(c1)C(N1[C@@H]3COCCN3C(=O)c3c(O)c(=O)ccn31)c1ccccc1C=C2` (mixture of isomers), the selectivity ratio in series [3] was more than 1560; in [13], more than 711. Also, the Activity entry in the series with MDCK is recorded as “Non-Toxic”. Moreover, the IC50 amounted to 0.281 µM in the series with Influenza A virus [18] and 0.128 µM in series [20]. In addition, in [22], the CC50 at 48 h is more than 200 µM.
Turning to `O=C1c2c(O)c(=O)ccn2N(C2c3ccccc3C=Cc3cc(Cl)ccc32)[C@@H]2COCCN12` (mixture of isomers), the values for the selectivity ratio in series [3] and in series [13] were 4090 and 2670, respectively. The IC50 amounted to 0.00717 µM in the series on Influenza A virus [18] and 0.00469 µM in [20]. The CC50 at 48 h in series [22] was determined as 19.2 µM.
